The record followed here is ChEMBL document CHEMBL1141231, “Discovery and development of a new class of potent, selective, orally active oxytocin receptor antagonists” (J Med Chem, 2005).

SMILES strings stand for the structures. A value given as a limit tells only on which side of the number the result lay.

By Ki is commonly meant a measure of affinity in units of concentration, obtained from inhibition or displacement. A higher Ki goes with lower affinity. The term inhibition denotes the relative decrease from the control value, in per cent. The term solubility denotes how much of the substance goes into solution per volume.

Data set [1] addresses T1, Oxytocin receptor (Homo sapiens, UniProt P30559).
T1 sequence (P30559 whole entry): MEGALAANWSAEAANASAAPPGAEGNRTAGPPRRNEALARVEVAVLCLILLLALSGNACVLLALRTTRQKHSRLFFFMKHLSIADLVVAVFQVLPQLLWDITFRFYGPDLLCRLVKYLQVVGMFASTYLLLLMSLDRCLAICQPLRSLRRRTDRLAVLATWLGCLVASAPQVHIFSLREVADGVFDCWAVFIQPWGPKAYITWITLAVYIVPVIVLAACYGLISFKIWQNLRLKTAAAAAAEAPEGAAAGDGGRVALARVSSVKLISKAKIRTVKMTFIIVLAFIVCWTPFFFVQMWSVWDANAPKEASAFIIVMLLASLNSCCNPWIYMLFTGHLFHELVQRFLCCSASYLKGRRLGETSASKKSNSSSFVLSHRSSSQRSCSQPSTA
The data set can be described thus: biochemical. In kind it is cell-based, HEK293-EBNA.

In data set [2] the target is T2, Vasopressin V1a receptor (Homo sapiens, UniProt P37288). The data set can be described thus: Displacement of [125I]LVA antagonist from human vasopressin 1a receptor expressed in HEK293-EBNA cells. In kind it is cell-based. A general note: Loss of bound radioactivity is the signal in a displacement assay; it reports binding, not function.
Target sequence in this assay (P37288 whole entry): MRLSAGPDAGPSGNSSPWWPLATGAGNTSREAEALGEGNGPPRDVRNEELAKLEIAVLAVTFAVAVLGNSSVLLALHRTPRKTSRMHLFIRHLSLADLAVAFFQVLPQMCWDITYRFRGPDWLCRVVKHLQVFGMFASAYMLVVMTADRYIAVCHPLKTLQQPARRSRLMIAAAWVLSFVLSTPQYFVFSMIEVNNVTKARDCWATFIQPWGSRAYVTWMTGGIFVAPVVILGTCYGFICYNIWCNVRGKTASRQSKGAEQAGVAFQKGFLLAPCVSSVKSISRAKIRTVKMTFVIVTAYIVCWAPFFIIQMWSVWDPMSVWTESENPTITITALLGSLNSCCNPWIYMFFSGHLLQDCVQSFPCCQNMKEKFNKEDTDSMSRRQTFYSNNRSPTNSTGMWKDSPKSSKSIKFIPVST
The species named for data set [3] is Homo sapiens. The data set can be described thus: Selectivity for human vasopressin V1a receptor over human oxytocin receptor.
Data set [4] concerns the target T3, Oxytocin receptor (Homo sapiens) (UniProt P30559).
T3 sequence (whole entry): T1 sequence (P30559 whole entry)
Kind of data set: Displacement of [125I]OVTA antagonist from human oxytocin receptor expressed in HEK293-EBNA cells at 10 uM. In kind it is cell-based.

Data set [5] has as its target T2, Vasopressin V1a receptor. The conditions noted are these: HEK293-EBNA, at 10 µM.
Target sequence in this assay (P37288 whole entry, looked up): as the sequence (P37288 whole entry) above
Description: Displacement of [125I]LVA antagonist from human vasopressin 1a receptor expressed in HEK293-EBNA cells at 10 uM
Data set [6] is described as follows: Solubility in saline. It counts as physicochemical.
The nature of data set [7]: Solubility in aqueous medium. In kind it is physicochemical.
[8] abbreviates: aqueous medium, read-out: Solubility.

Take `COc1ccc(S(=O)(=O)N(CC(=O)/N=N/c2c(O)[nH]c3ccccc23)c2ccc(Cl)cc2)cc1OC`: the Ki in data set [1] turned out to be 18 nM; in data set [2], 596 nM. In addition, in data set [3], the Ratio Ki came out at 33.

For the compound `O=C(CN(c1ccc(Cl)cc1)S(=O)(=O)c1cccs1)N/N=C1\C(=O)Nc2ccccc21`, the Ki in data set [1] was 37 nM; in data set [2], 510 nM. In addition, in data set [3], the Ratio Ki was 14.

On to `Cc1ccc(N(CC(=O)Nc2cccc(Cl)c2C)S(C)(=O)=O)cc1`, for which the inhibition in data set [4] and in data set [5] was less than 50% throughout.

Take `CCOc1ccc(S(=O)(=O)N(CC(=O)/N=N/c2c(O)[nH]c3ccccc23)c2ccccc2)cc1`: the Ki is 36 nM in data set [1] and greater than 10000 nM in data set [2]. Moreover, in data set [3], the Ratio Ki was greater than 275.

Regarding `CCN(CC)C(=O)CN(c1ccc(OC)cc1)S(=O)(=O)c1ccccc1`, the inhibition in data set [4] and in data set [5] was less than 50% throughout.

With `CN(C)CCCOc1ccc(S(=O)(=O)N(CC(=O)N/N=C2\C(=O)N(CC(N)=O)c3ccccc32)c2ccc(Cl)cc2)cc1`, the values for the Ki in data set [1] and in data set [2] were 322 nM and 1100 nM, respectively. Further, in data set [3], the Ratio Ki was 3.

Regarding `Cc1ccc(N(CC(=O)N/N=C/c2ccccc2F)S(=O)(=O)c2ccccc2)cc1`, the inhibition in data set [4] and in data set [5] was less than 50% throughout.

For the compound `O=C(CN(c1ccccc1)S(=O)(=O)c1ccccc1)N/N=C1\C(=O)Nc2ccccc21`, the inhibition constant (Ki) in data set [1] is 90 nM. For the same compound, in data set [5], the inhibition was less than 50%.

As to `CCOc1ccc(S(=O)(=O)N(CC(=O)N/N=C/c2ccccc2O)c2ccc(C)cc2)cc1`, the Ki is 60 nM in data set [1] and 3210 nM in data set [2]. Moreover, the Ratio Ki in data set [3] turned out to be 54.

On to `Cc1ccc(N(CC(=O)N/N=C2\C(=O)Nc3ccccc32)S(=O)(=O)c2cccc3ccccc23)cc1`, for which the Ratio Ki in data set [3] is greater than 58.

As to `COc1ccc(N(CC(=O)Nc2cccc(Cl)c2C)S(=O)(=O)c2ccccc2)cc1Cl`, the inhibition in data set [4] and in data set [5] was less than 50% in each case.

Take `O=C(CN(c1ccc(Cl)cc1)S(=O)(=O)c1ccccc1)N/N=C1\C(=O)Nc2ccccc21`: the Ki in data set [1] amounted to 8.7 nM; in data set [2], 611 nM. In addition, the Ratio Ki in data set [3] amounted to 70.

Turning to `CCOc1ccc(S(=O)(=O)N(CC(=O)N/N=C/c2ccccc2O)c2ccc(Cl)cc2)cc1`, the values for the Ki in data set [1] and in data set [2] were 15 nM and 650 nM, respectively. Also, in data set [3], the Ratio Ki was determined as 43.

In turn, `COc1ccc(S(=O)(=O)N(CC(=O)Nc2cccc(Cl)c2C)c2ccc(C)cc2)cc1OC` had an inhibition constant (Ki) in data set [1] of 620 nM. Besides, in data set [5], the inhibition is less than 50%.

On to `O=C(CN(c1ccc(Cl)cc1)S(=O)(=O)c1ccccc1)Nc1ccccc1`, for which the inhibition in data set [4] and in data set [5] was less than 50% each time.

Consider `CN(C)CCCOc1ccc(S(=O)(=O)N(CC(=O)/N=N/c2c(O)[nH]c3ccccc23)c2ccc(Cl)cc2)cc1.Cl`, for which the results for the solubility in data set [6] and in data set [7] (setting [8]) were 7 µg/mL and 180 µg/mL, respectively.

In the case of `CCOc1ccc(S(=O)(=O)N(CC(=O)N/N=C2\C(=O)Nc3ccccc32)c2ccc(Cl)cc2)cc1`, the values for the Ki in data set [1] and in data set [2] were 3.9 nM and 471 nM, respectively. Further, the Ratio Ki in data set [3] turned out to be 120.

With `CCCOc1ccc(S(=O)(=O)N(CC(=O)N/N=C2\C(=O)Nc3ccccc32)c2ccc(C)cc2)cc1`, the inhibition constant Ki was found to be 21 nM in data set [1] and 3730 nM in data set [2]. The Ratio Ki in data set [3] was found to be 175.

On to `CN(C)CCCOc1ccc(S(=O)(=O)N(CC(=O)/N=N/c2c(O)[nH]c3ccncc23)c2ccc(Cl)cc2)cc1.O=C(O)C(F)(F)F`, for which the solubility in data set [6] came to 10000 µg/mL; in data set [7] (setting [8]) it was 20000 µg/mL.

As for `COc1ccccc1/C=N/NC(=O)CN(c1ccc(C)cc1)S(=O)(=O)c1ccccc1`, the inhibition in data set [4] and in data set [5] was less than 50% in each case.

As to `Cc1ccc(N(CC(=O)/N=N/c2c(O)[nH]c3ccccc23)S(=O)(=O)c2ccc3ccccc3c2)cc1`, the Ki in data set [1] is 239 nM; in data set [2] it was greater than 10000 nM. In addition, the Ratio Ki in data set [3] is greater than 42.

For the compound `O=C(CCc1ccc(S(=O)(=O)N(CC(=O)N/N=C2\C(=O)Nc3ccccc32)c2ccc(Cl)cc2)cc1)NCCCO`, the solubility in data set [6] and in data set [7] (setting [8]) was less than 1 µg/mL in each case. In addition, the inhibition constant (Ki) in data set [1] was determined as 0.9 nM; in data set [2], 94 nM. Further, the Ratio Ki in data set [3] worked out at 102.

`CN(C)CCCNC(=O)CCc1ccc(S(=O)(=O)N(CC(=O)/N=N/c2c(O)[nH]c3ccccc23)c2ccc(Cl)cc2)cc1.O=C(O)/C=C/C(=O)O`: the solubility was determined as 10000 µg/mL in data set [6] and 20000 µg/mL in data set [7] (setting [8]).

As to `CC(C)CCN(CC(=O)N1CCc2ccccc2C1)S(=O)(=O)c1ccccc1`, the inhibition in data set [4] and in data set [5] was less than 50% each time.

For the compound `CNCCCC12CCC(c3ccccc31)c1ccccc12.Cl` [MAPROTILINE HYDROCHLORIDE], the solubility stood at 2 µg/mL in data set [6] and 580 µg/mL in data set [7] (buffer).

`CN(C)CCCNC(=O)CCc1ccc(S(=O)(=O)N(CC(=O)/N=N/c2c(O)[nH]c3ccccc23)c2ccc(Cl)cc2)cc1.O=C(O)C(F)(F)F`: the solubility in data set [6] was less than 1 µg/mL; in data set [7] (setting [8]), 20000 µg/mL.

Turning to `CCOc1ccc(S(=O)(=O)N(CC(=O)N2Cc3ccccc3CC2CC(N)=O)c2ccc(OC)cc2)cc1` (stereo not drawn), the inhibition constant Ki is 510 nM in data set [1] and 1600 nM in data set [2]. Besides, the Ratio ki in data set [3] amounted to 3.1.

On to `CCCOc1ccc(S(=O)(=O)N(CC(=O)N/N=C2\C(=O)Nc3ccccc32)c2ccc(Cl)cc2)cc1`, for which the figures for the inhibition constant (Ki) in data set [1] and in data set [2] were 10 nM and 1390 nM, respectively. The Ratio Ki in data set [3] is 140.

For the compound `CC(C)(C)c1ccc(S(=O)(=O)N(CC(=O)N/N=C2/C(=O)Nc3ccccc32)c2ccc(Cl)cc2)cc1`, the Ki is 61 nM in data set [1] and 4940 nM in data set [2]. Further, the Ratio Ki in data set [3] turned out to be 80.

Regarding `Cc1ccc(N(CC(=O)N/N=C/c2ccccc2O)S(=O)(=O)c2ccccc2)cc1`, the affinity in data set [1], expressed as Ki, was 67 nM. In addition, in data set [5], the inhibition was less than 50%.

With `CCOc1ccc(S(=O)(=O)N(CC(=O)OC)c2ccc(C)cc2)cc1`, the inhibition in data set [4] and in data set [5] was less than 50% in each case.

Turning to `Cc1ccc(N(CC(=O)N/N=C2\C(=O)Nc3ccccc32)S(=O)(=O)c2ccc(C#N)cc2)cc1`, the Ki was 111 nM in data set [1] and 6880 nM in data set [2]. The Ratio Ki in data set [3] turned out to be 62.

Take `CCOc1ccc(S(=O)(=O)N(CC(=O)N2Cc3ccccc3CC2C(N)=O)c2ccc(OC)cc2)cc1` (stereo not drawn): the values for the Ki in data set [1] and in data set [2] were 320 nM and 570 nM, respectively. The Ratio ki in data set [3] is 1.8.

Take `CCCc1ccc(S(=O)(=O)N(CC(=O)N/N=C2\C(=O)Nc3ccccc32)c2ccc(Cl)cc2)cc1`: the Ki in data set [1] came to 36 nM; in data set [2], 2120 nM. The Ratio Ki in data set [3] is 60.

In data set [1], `O=C(CN(c1ccc(Cl)cc1)S(=O)(=O)c1ccccc1)N/N=C/c1ccccc1O` had a Ki of 67 nM. In data set [5], this compound gave an inhibition of less than 50%.

For the compound `Cc1ccc(N(CC(=O)/N=N/c2c(O)[nH]c3ccccc23)S(=O)(=O)c2ccc(-c3ccccc3)cc2)cc1`, the inhibition constant Ki in data set [1] is 104 nM; in data set [2], greater than 10000 nM. Moreover, in data set [3], the Ratio Ki is greater than 96.

As for `Cc1ccc(N(CC(=O)N/N=C/c2ccccc2Cl)S(=O)(=O)c2ccccc2)cc1`, the inhibition in data set [4] and in data set [5] was less than 50% in each case.

Take `CCOc1ccc(S(=O)(=O)N(CC(=O)NN)c2ccc(C)cc2)cc1`: the inhibition in data set [4] and in data set [5] was less than 50% in each case.

For `CCCCOc1ccc(S(=O)(=O)N(CC(=O)N/N=C2\C(=O)Nc3ccccc32)c2ccc(Cl)cc2)cc1`, the inhibition constant (Ki) in data set [1] came out at 18 nM; in data set [2], 3980 nM. Besides, in data set [3], the Ratio Ki came out at 230.

For `CCOc1ccc(S(=O)(=O)N(CC(=O)N/N=C/c2ccccn2)c2ccc(Cl)cc2)cc1`, the Ki in data set [1] was 2750 nM; in data set [2], 1860 nM. Besides, the Ratio Ki in data set [3] was found to be 0.67.

`COc1ccc(-c2ccc(S(=O)(=O)N(CC(=O)/N=N/c3c(O)[nH]c4ccccc34)c3ccc(C)cc3)cc2)cc1`: the Ki is greater than 214 nM in data set [1] and greater than 10000 nM in data set [2]. Besides, in data set [3], the Ratio Ki was greater than 47.

Regarding `O=C(CN(CCc1ccccc1)S(=O)(=O)c1ccccc1)N1CCc2ccccc2C1`, the inhibition in data set [4] and in data set [5] was less than 50% throughout.

On to `Cl.O=C(CN(c1ccc(Cl)cc1)S(=O)(=O)c1ccc(OCCN2CCOCC2)cc1)/N=N/c1c(O)[nH]c2ccccc12`, for which the solubility in data set [6] amounted to 2.5 µg/mL; in data set [7] (setting [8]), 127 µg/mL.

As for `CCOc1ccc(S(=O)(=O)N(CC(=O)N2Cc3ccccc3C2C(N)=O)c2ccc(OC)cc2)cc1` (stereo not drawn), the figures for the Ki in data set [1] and in data set [2] were 770 nM and 1600 nM, respectively. The Ratio Ki in data set [3] worked out at 2.1.

Turning to `COC(=O)c1cccc2c1NC(=O)/C2=N\NC(=O)CN(c1ccc(Cl)cc1)S(=O)(=O)c1ccc(OCCCN(C)C)cc1`, the Ki in data set [2] came out at 1290 nM. In data set [3], the Ratio Ki is 12.

`CCOc1ccc(S(=O)(=O)N(CC(=O)N2Cc3ccccc3CC2CC(N)=O)c2ccc(C)cc2)cc1` (stereo not drawn) showed a Ki in data set [2] of 1800 nM. Further, the Ratio Ki in data set [3] was 3.6.

For `COc1ccc(S(=O)(=O)N(CC(=O)N/N=C2\C(=O)Nc3ccccc32)c2ccc(C)cc2)cc1`, the Ratio Ki in data set [3] was 22.

As to `CCOc1ccc(S(=O)(=O)N(CC(=O)/N=N/c2c(O)[nH]c3ccc([N+](=O)[O-])cc23)c2ccccc2)cc1`, the inhibition constant Ki in data set [1] and in data set [2] was greater than 10000 nM throughout.
